# Source: paper PMC7822874, “Chemoprotective antimalarials identified through quantitative high-throughput screening of Plasmodium blood and liver stage parasites” (Scientific Reports, 2021)
# Where “and” joins values, the source holds several entries; their conditions need not be identical. Equal entries are not always repeated. Where two headings read alike, the source gives them in different places.
# Legend:
# [1] = tested on: HepG2-A16-CD81EGFP cells; settings: for HepG2 1uM growth rep1 / HepG2 1uM growth rep2: HepG2, 1 µM compound treatment (10 mM stocks); for HepG2 1uM growth rep1 / HepG2 3uM growth rep1: replicate 1, normalized; for HepG2 1uM growth rep1 / HepG2 1uM growth rep2 / HepG2 3uM growth rep1 / HepG2 3uM growth rep2: average of 2 wells; for HepG2 1uM growth rep2 / HepG2 3uM growth rep2: replicate 2, normalized; for HepG2 3uM growth rep1 / HepG2 3uM growth rep2: HepG2, 3 µM compound treatment (10 mM stocks)
# [2] = tested on: P. berghei-ANKA-GFP-LucCON liver stage parasites in HepG2-A16-CD81EGFP cells; assay: P. berghei liver stage Pb-Luc assay, Method 1 (UCSD, 1536-well); assay type: cell-based, Plasmodium berghei; settings: for activity at 1 µM / activity at 3 µM: Plasmodium berghei, 48 h; for activity at 1 µM / activity at 3 µM / PbLuc 1uM growth rep1 / PbLuc 1uM growth rep2 / PbLuc 3uM growth rep1 / PbLuc 3uM growth rep2: P. berghei liver stage, average of 2 wells on a 1536 well plate; for activity at 1 µM / PbLuc 1uM growth rep1 / PbLuc 1uM growth rep2: 1 µM compound treatment (10 mM stocks); for activity at 3 µM / PbLuc 3uM growth rep1 / PbLuc 3uM growth rep2: 3 µM compound treatment (10 mM stocks)
# [3] = tested on: Plasmodium falciparum Dd2 asexual blood stage parasites; assay: microbe, parasite or virus in culture; set-up: species or system Plasmodium falciparum Dd2 in human erythrocytes; single determination (one 11-point concentration-response curve); settings: Plasmodium falciparum, DD2, Erythrocyte, 72 h; read-out: AC50
# [4] = replicate 1, normalized, read-out: PbLuc 1uM growth rep1
# [5] = replicate 2, normalized, read-out: PbLuc 1uM growth rep2
# [6] = replicate 1, normalized, read-out: PbLuc 3uM growth rep1
# [7] = replicate 2, normalized, read-out: PbLuc 3uM growth rep2
Structure (SMILES),HepG2 1uM growth rep1 [1] [%],HepG2 1uM growth rep2 [1] [%],HepG2 3uM growth rep1 [1] [%],HepG2 3uM growth rep2 [1] [%],"activity at 1 µM [2, 4] [%]","activity at 1 µM [2, 5] [%]","activity at 3 µM [2, 6] [%]","activity at 3 µM [2, 7] [%]",AC50 [3] [µM],"PbLuc 1uM growth rep1 ([2]; replicate 1, normalized) [%]","PbLuc 1uM growth rep2 ([2]; replicate 2, normalized) [%]","PbLuc 3uM growth rep1 ([2]; replicate 1, normalized) [%]","PbLuc 3uM growth rep2 ([2]; replicate 2, normalized) [%]",further results
CCCC(C)C(=O)Nc1ncc(S(=O)(=O)c2ccc([N+](=O)[O-])cc2)s1 (centres unmarked) [MLS001034555-01],95,92,93,94,109,117,105,136,5.96,,,,,
COc1cccc(NC(=O)CN(C)C(=O)c2ccc(-c3cccc(C(F)(F)F)c3)o2)c1 [MLS001071804-01],105,98,84,96,153,125,107,104,0.596,,,,,
CCOc1ccccc1NC(=O)Cn1c(-c2ccc(Cl)cc2)noc1=O [MLS000529487-01],101,91,84,90,100,128,102,133,5.96,,,,,
Cc1cc(C)n(-c2nnc(N3CCN(c4ccccc4)CC3)nn2)n1 [MLS000695202-01],99,95,90,98,122,82,91,76,0.596,,,,,
CCCCc1c(C)c(C#N)c2nc3ccccc3n2c1Nc1c(C)n(C)n(-c2ccccc2)c1=O [MLS000555448-01],92,93,87,94,131,125,114,127,2.66,,,,,
O=C(c1ccc([N+](=O)[O-])o1)N1CCN(c2nc3c(Cl)cccc3s2)CC1 [MLS001234208-01],103,93,86,94,67,72,36,52,4.22,,,,,
Cc1ccc(Nc2cc(C)c3ccc(O)cc3n2)cc1C.Cl [MLS000674791-01],98,92,89,95,,,,,,115,107,69,101,
O=C(CCCCCCC(=O)Nc1ccccc1)NO [NCGC00168085-22],,,,,,,,,,,,,,"HepG2 viability signal, 1 uM, repeat 1 [1]: 84.33%; HepG2 viability signal, 1 uM, repeat 2 [1]: 78.31%; HepG2 viability signal, 3 uM, repeat 1 [1]: 48.31%; HepG2 viability signal, 3 uM, repeat 2 [1]: 48.65%; Pb-Luc signal, 1 uM, repeat 1 ([2]; nominal 1 uM (10 mM stock), […] for 15 mM, 1.2 uM for 12 mM, 2 uM for 20 mM stock, average of 2 wells, 1536-well plate, repeat 1): 18.69%; Pb-Luc signal, 1 uM, repeat 2 ([2]; nominal 1 uM (10 mM stock), […] for 15 mM, 1.2 uM for 12 mM, 2 uM for 20 mM stock, average of 2 wells, 1536-well plate, repeat 2): 22.42%; Pb-Luc signal, 1 uM, repeat 3 ([2]; nominal 1 uM (10 mM stock), […] for 15 mM, 1.2 uM for 12 mM, 2 uM for 20 mM stock, average of 2 wells, 1536-well plate, repeat 3): 16.08%; Pb-Luc signal, 3 uM, repeat 1 ([2]; nominal 3 uM (10 mM stock), 4.5 uM for 15 mM, 3.6 uM for 12 mM, 6 uM for 20 mM stock, average of 2 wells, 1536-well plate, repeat 1): 2.01%; Pb-Luc signal, 3 uM, repeat 2 ([2]; nominal 3 uM (10 mM stock), 4.5 uM for 15 mM, 3.6 uM for 12 mM, 6 uM for 20 mM stock, average of 2 wells, 1536-well plate, repeat 2): 4.89%; Pb-Luc signal, 3 uM, repeat 3 ([2]; nominal 3 uM (10 mM stock), 4.5 uM for 15 mM, 3.6 uM for 12 mM, 6 uM for 20 mM stock, average of 2 wells, 1536-well plate, repeat 3): 2.03%"
Oc1ccccc1Nc1nc(NCc2ccccc2)c2ccccc2n1 [MLS000693415-01],89,90,92,90,72,80,65,75,,,,,,
Br.N=c1n(CCN2CCCCC2)c2ccccc2n1CC(=O)c1ccc(Cl)c(Cl)c1 [MLS001042209-01],87,90,85,90,,,,,,90,95,75,102,
Cc1ccc(-c2cc(C(=O)Nc3ccc(S(=O)(=O)N4CC(C)OC(C)C4)cc3)[nH]n2)c(O)c1 (centres unmarked) [MLS000779230-01],106,100,84,94,,,,,,151,112,73,94,
Cc1ccc(NC2=C/C(=N/S(=O)(=O)c3cccs3)c3ccccc3C2=O)cc1C [MLS000585841-01],102,96,77,86,,,,,,82,86,57,72,
O=C1N(c2ccccc2C(F)(F)F)OC1(Cc1ccccc1)c1ccccc1 (centres unmarked) [MLS002206595-01],104,93,82,88,,,,,,103,105,93,118,
CC(=O)OC[C@]12CCC(C)=C[C@H]1O[C@@H]1[C@H](O)[C@@H](OC(C)=O)[C@@]2(C)[C@]12CO2 [MLS000863617-01],,,,,,,,,,,,,,"HepG2 viability, % of control, column 14 [1]: 5.74%; HepG2 viability, % of control, column 15 [1]: 8.75%; HepG2 viability, % of control, column 16 [1]: 5.74%; HepG2 viability, % of control, column 17 [1]: 8.75%; Pb-Luc (P. berghei liver stage luciferase signal), % of control, repeat 1 [2]: 4.68% and -0.33%; Pb-Luc (P. berghei liver stage luciferase signal), % of control, repeat 2 [2]: 4.34% and -1.04%; Pb-Luc (P. berghei liver stage luciferase signal), % of control, repeat 3 [2]: -2.60% and 1.77%"
